Measurements published in the supplement of paper PMC10627819.

What was measured:
B. subtilis 168 [1] = assay: fitness (endpoint OD595 vs no drug) (fraction); higher = more growth
Procedure, shortened: (§1)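 Fitness was defined as the optical density at the transition into stationary phase relative to the robust mean of no-drug control wells. Values were capped at 1. Cultures were started at OD595 0.01 in 384-well plates (30 µl, or 55 µl for S. pneumoniae) in TSB, LB Lennox or CY at 37 °C. OD595 was recorded every 30 min over 14 h, with the first reading subtracted as background.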

S. aureus DSM 20231 [2] = assay: as above
Procedure, shortened: as §1

S. aureus Newman [3] = assay: as above
Procedure, shortened: as §1

S. pneumoniae D39V [4] = assay: as above
Procedure, shortened: as §1

B. subtilis 168 [5] = assay: Bliss interaction score (quartile over a dose matrix) (fitness difference); higher = more antagonism (negative = synergy)
Procedure, shortened: (§2)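 Growth was read as OD595 when cultures entered stationary phase, and each value was divided by the plate's robust no-drug mean and capped at 1. This normalised ratio is the fitness value, and fitness for each single drug came from the combination data. The Bliss score subtracts the expected fitness, taken as the product, from the observed fitness and is given as quartiles across technical, biological and donor/recipient replicates.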

S. aureus DSM 20231 [6] = assay: as above
Procedure, shortened: as §2

S. aureus Newman [7] = assay: as above
Procedure, shortened: as §2

S. pneumoniae D39V [8] = assay: as above
Procedure, shortened: as §2
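Wherever Bliss interaction score (quartile over a dose matrix) is given: first quartile when negative (synergy) and third quartile when positive (antagonism).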

O=C(O[C@@H]1Cc2c(O)cc(O)cc2O[C@@H]1c1cc(O)c(O)c(O)c1)c1cc(O)c(O)c(O)c1 [EGCG] + COc1ccc(C[C@H](N)C(=O)N[C@H]2[C@@H](O)[C@H](n3cnc4c(N(C)C)ncnc43)O[C@@H]2CO)cc1 [Puromycin]
fitness
Conditions | first compound 6.25 µg/mL | first compound 12.5 µg/mL | first compound 25 µg/mL | first compound 50 µg/mL
B. subtilis 168 [1], partner 0.39 µg/mL | 0.91 | – | – | –
B. subtilis 168 [1], partner 0.78 µg/mL | 0.953 | – | – | –
B. subtilis 168 [1], partner 1.56 µg/mL | 0.885 | – | – | –
S. aureus DSM 20231 [2], partner 0.39 µg/mL | – | 0.908 | 0.842 | –
S. aureus DSM 20231 [2], partner 0.78 µg/mL | – | 0.888 | 0.812 | 0.845
S. aureus DSM 20231 [2], partner 1.56 µg/mL | – | 0.864 | 0.846 | 0.777
S. aureus Newman [3], partner 0.39 µg/mL | – | 0.802 | 0.779 | 0.657
S. aureus Newman [3], partner 0.78 µg/mL | – | 0.809 | 0.789 | –
S. aureus Newman [3], partner 1.56 µg/mL | – | 0.846 | 0.787 | –
S. pneumoniae D39V [4], partner 1 µg/mL | – | 0.949 | – | 0.965
S. pneumoniae D39V [4], partner 2 µg/mL | – | 0.895 | 0.917 | 0.91
S. pneumoniae D39V [4], partner 4 µg/mL | – | – | 0.384 | –

fitness, S. aureus DSM 20231 [2], one replicate
Conditions | first compound 12.5 µg/mL | first compound 25 µg/mL | first compound 50 µg/mL
partner 3.12 µg/mL | 0.846 | 0.945 | 0.676
partner 6.24 µg/mL | 0.745 | 0.527 | 0.172

Conditions | Bliss interaction score
B. subtilis 168 [5] | -0.0503
S. aureus DSM 20231 [6] | 0.09
S. aureus Newman [7] | 0.0755
S. pneumoniae D39V [8] | 0.0916

O=C(O[C@@H]1Cc2c(O)cc(O)cc2O[C@@H]1c1cc(O)c(O)c(O)c1)c1cc(O)c(O)c(O)c1 [EGCG] + C[C@@H]1O[C@@H]1P(=O)(O)O [Fosfomycin]
fitness
Conditions | first compound 6.25 µg/mL | first compound 12.5 µg/mL | first compound 25 µg/mL | first compound 50 µg/mL
B. subtilis 168 [1], partner 1.562 µg/mL | 0.682 | – | – | –
B. subtilis 168 [1], partner 3.124 µg/mL | 0.562 | – | 0.396 | –
B. subtilis 168 [1], partner 6.248 µg/mL | 0.448 | 0.439 | 0.25 | –
S. aureus DSM 20231 [2], partner 0.781 µg/mL | – | 0.583 | 0.541 | 0.402
S. aureus DSM 20231 [2], partner 1.562 µg/mL | – | 0.459 | 0.465 | –
S. aureus DSM 20231 [2], partner 3.124 µg/mL | – | 0.416 | 0.399 | 0.23
S. aureus Newman [3], partner 0.781 µg/mL | – | 0.494 | 0.573 | 0.548
S. aureus Newman [3], partner 1.562 µg/mL | – | 0.542 | 0.502 | 0.48
S. aureus Newman [3], partner 3.124 µg/mL | – | 0.251 | 0.219 | 0.185
S. pneumoniae D39V [4], partner 1.25 µg/mL | – | 0.965 | 0.913 | 0.969
S. pneumoniae D39V [4], partner 2.5 µg/mL | – | 0.948 | 0.936 | 0.856
S. pneumoniae D39V [4], partner 5 µg/mL | – | 0.774 | 0.796 | 0.854

Conditions | Bliss interaction score
B. subtilis 168 [5] | 0.144
S. aureus DSM 20231 [6] | -0.113
S. aureus Newman [7] | 0.101
S. pneumoniae D39V [8] | 0.0738
